# Laboratory results: PubChem BioAssay (NCI)
#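 All cell lines were grown in 96-well plates and treated with compound for 48 hours. TGI: total growth inhibition.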
# Assays:
# Assay in all cases: DTP human tumour cell line panel, 48 h
# SNB-75 CNS = test system: SNB-75 CNS
# U251 CNS = test system: U251 CNS
# HOP-92 NSCLC = test system: HOP-92 NSCLC
# OVCAR-4 ovarian = test system: OVCAR-4 ovarian
# SNB-78 CNS = test system: SNB-78 CNS
# A549 NSCLC = test system: A549 NSCLC
# SK-MEL-5 melanoma = test system: SK-MEL-5 melanoma
# HCT-116 colon = test system: HCT-116 colon
# TK-10 renal = test system: TK-10 renal
# HOP-18 NSCLC = test system: HOP-18 NSCLC
# DMS 114 small cell lung = test system: DMS 114 small cell lung
# MOLT-4 leukemia = test system: MOLT-4 leukemia
# SF-268 CNS = test system: SF-268 CNS
# HOP-62 NSCLC = test system: HOP-62 NSCLC
# SF-539 CNS = test system: SF-539 CNS
# OVCAR-5 ovarian = test system: OVCAR-5 ovarian
# COLO 205 colon = test system: COLO 205 colon
# SK-MEL-28 melanoma = test system: SK-MEL-28 melanoma
# M14 melanoma = test system: M14 melanoma
# NCI-H460 lung = test system: NCI-H460 lung
# NCI-H522 lung = test system: NCI-H522 lung
# CAKI-1 renal = test system: CAKI-1 renal
# ACHN renal = test system: ACHN renal
# IGROV1 ovarian = test system: IGROV1 ovarian
# UO-31 renal = test system: UO-31 renal
# HCT-15 colon = test system: HCT-15 colon
# SK-MEL-2 melanoma = test system: SK-MEL-2 melanoma
# SF-295 CNS = test system: SF-295 CNS
# KM12 colon = test system: KM12 colon
# SN12C renal = test system: SN12C renal
# XF 498 CNS = test system: XF 498 CNS
# SW-620 colon = test system: SW-620 colon
# DLD-1 colon = test system: DLD-1 colon
# MALME-3M melanoma = test system: MALME-3M melanoma
# LOX IMVI melanoma = test system: LOX IMVI melanoma
# KM20L2 colon = test system: KM20L2 colon
# OVCAR-3 ovarian = test system: OVCAR-3 ovarian
# UACC-257 melanoma = test system: UACC-257 melanoma
# LXFL 529 NSCLC = test system: LXFL 529 NSCLC
# 786-0 renal = test system: 786-0 renal
# UACC-62 melanoma = test system: UACC-62 melanoma
# OVCAR-8 ovarian = test system: OVCAR-8 ovarian
# DMS 273 small cell lung = test system: DMS 273 small cell lung
# NCI-H226 lung = test system: NCI-H226 lung
# K-562 leukemia = test system: K-562 leukemia
# SNB-19 CNS = test system: SNB-19 CNS
# HT29 colon = test system: HT29 colon
# HL-60(TB) leukemia = test system: HL-60(TB) leukemia
# CCRF-CEM leukemia = test system: CCRF-CEM leukemia
# M19-MEL melanoma = test system: M19-MEL melanoma
# RXF 393 renal = test system: RXF 393 renal
# NCI-H23 lung = test system: NCI-H23 lung
# RPMI-8226 leukemia = test system: RPMI-8226 leukemia
# SK-OV-3 ovarian = test system: SK-OV-3 ovarian
# EKVX NSCLC = test system: EKVX NSCLC
# A498 renal = test system: A498 renal
# SR leukemia = test system: SR leukemia
# HCC-2998 colon = test system: HCC-2998 colon
compound,measurement,setting,value
COc1c2nc(CCl)[nH]c(=O)c2c(OC)c2nc(CCl)[nH]c(=O)c12,TGI,SNB-75 CNS,> 100 µM
same,TGI,U251 CNS,> 100 µM
same,TGI,HOP-92 NSCLC,> 100 µM
same,TGI,OVCAR-4 ovarian,> 100 µM
same,TGI,SNB-78 CNS,> 100 µM
same,TGI,A549 NSCLC,> 100 µM
same,TGI,SK-MEL-5 melanoma,> 100 µM
same,TGI,HCT-116 colon,> 100 µM
same,TGI,TK-10 renal,> 100 µM
same,TGI,HOP-18 NSCLC,> 100 µM
same,TGI,DMS 114 small cell lung,> 100 µM
same,TGI,MOLT-4 leukemia,> 100 µM
same,TGI,SF-268 CNS,> 100 µM
same,TGI,HOP-62 NSCLC,> 100 µM
same,TGI,SF-539 CNS,> 100 µM
same,TGI,OVCAR-5 ovarian,> 100 µM
same,TGI,COLO 205 colon,> 100 µM
same,TGI,SK-MEL-28 melanoma,> 100 µM
same,TGI,M14 melanoma,> 100 µM
same,TGI,NCI-H460 lung,> 100 µM
same,TGI,NCI-H522 lung,> 100 µM
same,TGI,CAKI-1 renal,> 100 µM
same,TGI,ACHN renal,> 100 µM
same,TGI,IGROV1 ovarian,> 100 µM
same,TGI,UO-31 renal,> 100 µM
same,TGI,HCT-15 colon,> 100 µM
same,TGI,SK-MEL-2 melanoma,> 100 µM
same,TGI,SF-295 CNS,> 100 µM
same,TGI,KM12 colon,> 100 µM
same,TGI,SN12C renal,> 100 µM
same,TGI,XF 498 CNS,> 100 µM
same,TGI,SW-620 colon,> 100 µM
same,TGI,DLD-1 colon,> 100 µM
same,TGI,MALME-3M melanoma,> 100 µM
same,TGI,LOX IMVI melanoma,> 100 µM
same,TGI,KM20L2 colon,> 100 µM
same,TGI,OVCAR-3 ovarian,> 100 µM
same,TGI,UACC-257 melanoma,> 100 µM
same,TGI,LXFL 529 NSCLC,> 100 µM
same,TGI,786-0 renal,> 100 µM
same,TGI,UACC-62 melanoma,> 100 µM
same,TGI,OVCAR-8 ovarian,> 100 µM
same,TGI,DMS 273 small cell lung,> 100 µM
same,TGI,NCI-H226 lung,> 100 µM
same,TGI,K-562 leukemia,> 100 µM
same,TGI,SNB-19 CNS,> 100 µM
same,TGI,HT29 colon,> 100 µM
same,TGI,HL-60(TB) leukemia,> 100 µM
same,TGI,CCRF-CEM leukemia,> 100 µM
same,TGI,M19-MEL melanoma,> 100 µM
same,TGI,RXF 393 renal,> 100 µM
same,TGI,NCI-H23 lung,> 100 µM
same,TGI,RPMI-8226 leukemia,> 100 µM
same,TGI,SK-OV-3 ovarian,> 100 µM
CC/C(C)=C1\CCC(CN2CCOCC2)C1=O (stereo not drawn),TGI,SNB-75 CNS,40.6 µM
same,TGI,HOP-92 NSCLC,32.4 µM
same,TGI,OVCAR-4 ovarian,31.7 µM
same,TGI,SNB-78 CNS,50.5 µM
same,TGI,EKVX NSCLC,34 µM
same,TGI,A549 NSCLC,41.6 µM
same,TGI,SK-MEL-5 melanoma,78.4 µM
same,TGI,HCT-116 colon,26.8 µM
same,TGI,TK-10 renal,28 µM
same,TGI,HOP-18 NSCLC,34.1 µM
same,TGI,DMS 114 small cell lung,18.6 µM
same,TGI,MOLT-4 leukemia,> 100 µM
same,TGI,SF-268 CNS,26 µM
same,TGI,A498 renal,39.1 µM
same,TGI,HOP-62 NSCLC,40.2 µM
same,TGI,SF-539 CNS,35 µM
same,TGI,OVCAR-5 ovarian,31.3 µM
same,TGI,SR leukemia,49.8 µM
same,TGI,SK-MEL-28 melanoma,32 µM
same,TGI,M14 melanoma,31.4 µM
same,TGI,NCI-H460 lung,32.4 µM
same,TGI,CAKI-1 renal,5.99 µM
same,TGI,ACHN renal,19.8 µM
same,TGI,IGROV1 ovarian,38.1 µM
same,TGI,UO-31 renal,36.6 µM
same,TGI,HCT-15 colon,26.5 µM
same,TGI,SK-MEL-2 melanoma,32 µM
same,TGI,SF-295 CNS,> 100 µM
same,TGI,KM12 colon,> 100 µM
same,TGI,HCC-2998 colon,39.4 µM
same,TGI,SN12C renal,21.7 µM
same,TGI,XF 498 CNS,33.4 µM
same,TGI,SW-620 colon,34.5 µM
same,TGI,DLD-1 colon,27 µM
same,TGI,MALME-3M melanoma,33 µM
same,TGI,LOX IMVI melanoma,30.5 µM
same,TGI,KM20L2 colon,36.7 µM
same,TGI,OVCAR-3 ovarian,29.5 µM
same,TGI,UACC-257 melanoma,31.5 µM
same,TGI,LXFL 529 NSCLC,23.7 µM
same,TGI,786-0 renal,22.9 µM
same,TGI,UACC-62 melanoma,32.7 µM
same,TGI,OVCAR-8 ovarian,50.6 µM
same,TGI,DMS 273 small cell lung,32.4 µM
same,TGI,NCI-H226 lung,> 100 µM
same,TGI,K-562 leukemia,> 100 µM
same,TGI,SNB-19 CNS,> 100 µM
same,TGI,HT29 colon,39.9 µM
same,TGI,HL-60(TB) leukemia,44 µM
same,TGI,CCRF-CEM leukemia,32 µM
same,TGI,M19-MEL melanoma,30 µM
same,TGI,RXF 393 renal,22 µM
same,TGI,NCI-H23 lung,30.6 µM
same,TGI,RPMI-8226 leukemia,15.9 µM
